Experiment [1] has as its system murine intracranial aneurysms. Put plainly: Mouse intracranial aneurysm model (aneurysm formation). In kind it is in vivo, mouse (C57BL/6). The source says:
Mouse Intracranial Aneurysm Model. Murine intracranial aneurysms were created in female 8-12 week-old C57BL/6 mice (Charles River Laboratories, Wilmington, Mass.) using a method described previously (Hosaka et al., Journal of neurointerventional surgery. 2014; 6:474-9). Briefly, the left common carotid artery and the right renal artery were ligated to induce hypertension. One week later, an Alzet micro-osmotic pump model 1004 (DURECT Corp, Cupertino, Calif.) was implanted subdermally to deliver Angiotensin II (Bachem AG, Switzerland) at 1000 ng/kg/min. 10 μL of 0.8% porcine elastase (Worthington Biochemical Corp, Lakewood, N.J.) in normal saline was injected into the right basal cistern using stereotactic coordinates: 1.2 mm rostral of bregma, 0.7 mm lateral of midline and 5.3 mm ventral of the dorsal aspect of the skull. The animals were fed a hypertensive diet with 8% NaCl and 0.12% BAPN (TEKLAD). Clopidogrel was administered at 1 mg/kg in normal saline via intraperitoneal injection every two days. Reparixin was administered at 10 mg/kg in normal saline via intraperitoneal injection every two days. PBS-treated animals received 10 μL injection of phosphate buffered saline subcutaneously every two days. […] Each Circle of Willis was examined by a blinded observer and aneurysm formation was recorded (yes/no). […]

Experiment [2] has as its system cytokines (inflammatory profile). Put plainly: Cytokine arrays in aneurysm-induced cerebral vasculature. In kind it is in vivo, mouse. Particulars: aneurysmal mice, 2 versus 3 weeks; FIG. 5. An excerpt: Mouse Intracranial Aneurysm Model. Murine intracranial aneurysms were created in female 8-12 week-old C57BL/6 mice (Charles River Laboratories, Wilmington, Mass.) using a method described previously (Hosaka et al., Journal of neurointerventional surgery. 2014; 6:474-9). Briefly, the left common carotid artery and the right renal artery were ligated to induce hypertension. One week later, an Alzet micro-osmotic pump model 1004 (DURECT Corp, Cupertino, Calif.) was implanted subdermally to deliver Angiotensin II (Bachem AG, Switzerland) at 1000 ng/kg/min. 10 μL of 0.8% porcine elastase (Worthington Biochemical Corp, Lakewood, N.J.) in normal saline was injected into the right basal cistern using stereotactic coordinates: 1.2 mm rostral of bregma, 0.7 mm lateral of midline and 5.3 mm ventral of the dorsal aspect of the skull. The animals were fed a hypertensive diet with 8% NaCl and 0.12% BAPN (TEKLAD). Clopidogrel was administered at 1 mg/kg in normal saline via intraperitoneal injection every two days. Reparixin was administered at 10 mg/kg in normal saline via intraperitoneal injection every two days. PBS-treated animals received 10 μL injection of phosphate buffered saline subcutaneously every two days. […] In addition, cytokines were analyzed in human cerebral aneurysm, superficial temporal artery, and peripheral intravenous blood specimens that were collected at the time of surgery.

Compound `COC(=O)[C@H](c1ccccc1Cl)N1CCc2sccc2C1` [clopidogrel] displayed a mice developing aneurysms in experiment [1] (1 mg/kg clopidogrel, controls 59%, p<0.001, FIG. 3A) of 0%. Also, the “attenuation of inflammatory profile (temporal dynamics of 96 cytokines)” value in experiment [2] was “moderate response”.
`CC(C)Cc1ccc([C@@H](C)C(=O)NS(C)(=O)=O)cc1` [reparixin] registered a mice developing aneurysms in experiment [1] (10 mg/kg reparixin, PBS:DMSO treated control mice 59%, p=0.0163, FIG. 3B) of 14%. In addition, in experiment [2], the “attenuation of inflammatory profile (temporal dynamics of 96 cytokines)” value is reported as “robust anti-inflammatory effects”.

The record behind these values is patent publication US20220054463A1, “METHODS OF TREATING ANEURYSMS” (University of Pittsburgh-of the Commonwealth System of …, priority 2020, published 2022).
